Reference: patent US20120149708A1, “MODULATORS OF VIRAL TRANSCRIPTION, AND METHODS AND COMPOSITIONS THEREWITH” (George Mason University, priority 2010, published 2012)

Key:
[1] = system: HIV-1 (pNL4.3) in promonocytic U937 cells; assay: Reverse transcriptase assay of supernatants, pNL4.3 electroporated cells; type: cell-based; details: Flavopiridol 200 nm, CR8 100 nm, CR8#13 50 nm, 48 hours
Protocol: (§1) Jurkat T-cell and promonocytic U937 cells were electroporated with 5 μg pNL4.3 followed the next day by drug treatment of Flavopiridol (200 nm), CR8 (100 nm) or CR8#13 (50 nm). Cell supernatants were collected at 48 hours post drug treatment. Viral supernatants (10 μl) were incubated in a 96-well plate with reverse transcriptase (RT) reaction mixture overnight at 37° C., and 10 μl of the reaction mix was spotted on a DEAE Filtermat paper, washed with 5% (w/v) Na2HPO4 followed by water wash, and then dried completely. RT activity was measured in a Betaplate counter.
(§2) For electroporations, Jurkat and U937 cells were resuspended at 3 million cells in 250 μl of RPMI. Five microgram of pNL4-3 was then added to the cell suspension. Cells were pulsed a single time at 210V, 800 μF, and low resistance. Electroporated cells were immediately transferred to RPMI-1640 with L-glutamine and Penicillin/Streptomycin with 10% (v/v) FBS and plated in 6 well plates. Twenty four hours-post electroporation, cells were treated with drugs for additional 48 hrs and harvested for RT analysis. RT assays were performed as described in ((Guendel et al. 2009; Easley et al. 2010).
(§3) The present inventors examined whether Formula I, or Formula II compounds were effective inhibiting viral transcription in cell lines infected with an HIV-1 construct. Thus, Jurkat T-cells and promonocytic U937 cells were transfected with pNL4.3 and then treated with Flavopiridol, CR8 and CR8#13. Similar to monocytes, the Dicer levels are low to undetectable in promonocytic cells (FIG. 6) and was detectable only when these cells had differentiated into macrophages with PMA treatment.
(§4) Following drug treatment cell supernatants were collected and processed for exogenous reverse transcriptase (RT) levels.

[2] = system: HIV-1 (pNL4.3) in Jurkat T-cells; assay: as above; type: cell-based; details: Flavopiridol 200 nm, CR8 100 nm, CR8#13 50 nm, 48 hours
Protocol: as §1, §2, §3, §4

3′TAR and 5′TAR microRNA = assay: Poly-A RT-PCR of TAR microRNA in TZM-bl cells with or without TSA; type: cell-based, HIV-1
Protocol: RNA was extracted 48 hrs-post drug treatment. 500 ng of RNA from the microRNA-enriched fraction was used to generate cDNA using the Quantimir kit (SBI) in order to poly adenylate small RNA species. RT reactions were performed followed by PCR in which a universal reverse primer was provided by the manufacturer. Specific microRNA forward primers are identical in sequence to the microRNA of interest. PCR products corresponding to the amplified microRNAs were separated in a 3.5% (w/v) agarose gel. The PCR products are at around 67 bp as compared with the Fermentas 1 kb DNA Plus Ladder. Increased levels of 3′TAR microRNA were produced post CR8#13 treatment.
For poly-A RT-PCR detection of microRNAs, 500 ng of RNA from the microRNA-enriched fraction was used to generate cDNA using the Quantimir kit (SBI) according to the manufacturer's protocol. Briefly, small RNA species are poly-adenylated and then reverse transcription reactions are performed with a company-provided RT primer. For PCR, a universal reverse primer is provided by the manufacturer. Specific microRNA forward primers are identical in sequence to the microRNA of interest. PCR products corresponding to the amplified microRNAs were separated in a 3.5% (w/v) agarose gel and quantified using the Kodak 1D software.
To determine whether the cdk inhibitors Flavopiridol, CR8, and CR8#13 increased levels of TAR microRNA in the TSA-treated and control TZM-bl cells total RNA was extracted from both TSA treated and control cells treated with Flavopiridol, CR8, and CR8#13 and processed for RT-PCR detection of microRNAs, specifically, for the presence of 3′TAR and 5′TAR molecules.

HIV-1 LTR-CAT reporter = assay: CAT assay of Tat-mediated transactivation in HCT116 WT and Dicer-/- cells; type: cell-based; details: HCT116 WT (Dicer) versus Dicer-/-; 48 hrs; Flavopiridol, CR8#13, F07#13 100 nm, 9AA 1000 nm
Protocol: Six hours later, the transfected cells were treated with DMSO, Flavopirodol (100 nm), CR8#13 (100 nm), F07#13 (100 nm), and 9AA (1000 nm). Treated cells were incubated in complete DMEM for 48 hrs at 37° C. Cells were harvested and cell extracts were used for CAT analysis. One tenth the amount of HCT116 Dicer−/−extract compared to HCT116 WT was used for CAT analysis. […] The corresponding bar graphs in A and B show values that represent the percentage of conversion of the [14C] chloramphenicol substrate in the CAT assay.
Various cells lines were transfected with the HIV-1 LTRCAT plasmid and pc-Tat to initiate the LTR transcription, and subsequently subjected to various drug treatments. After 48 hrs, cells were lysed and CAT assays were performed as previously described (Guendel et al, 2009; Van Duyne et al, 2008; Easley et al, 2010).
To evaluate the role on microRNA machinery in inhibition of viral transcription activity, HCT116 colon carcinoma cell lines that either contained a WT Dicer (HCT116 WT) or lacked the Dicer protein (HCT116 Dicer-−/−) were first transfected with the HIV-1 LTR-CAT reporter construct. The HIV-1 LTR transcription was activated with pc-Tat and following incubation for 6 hours was treated with DMSO (negative control), Flavopiridol (positive control), CR8#13, F07#13, or 9AA.
Cells were harvested 48 hrs-post treatment and processed for CAT assays (FIGS. 3A and B). […] Based on this observation the inventors hypothesize that the microRNA machinery, Dicer and Drosha, plays an inhibitory role in HIV-1 transcription.

CN1CC[C@H](c2c(O)cc(O)c3c(=O)cc(-c4ccccc4Cl)oc23)[C@H](O)C1 [Flavopiridol]
RT levels in supernatant [1]: able to decrease RT levels in both cell lines
RT levels in supernatant [2]: able to decrease RT levels in both cell lines
3′ and 5′ TAR microRNA amount (3′TAR and 5′TAR microRNA; TZM-bl cells treated with TSA for 7 days, then drug): higher amounts of both 3′ and 5′ TAR microRNA
3′ TAR microRNA amount (3′TAR and 5′TAR microRNA; non-TSA treated TZM-bl cells, Flavopiridol 50 nm, CR8 100 nm, CR8#13 100 nm): significantly increased amount of the 3′ TAR microRNA
inhibition of viral transcription (CAT) (HIV-1 LTR-CAT reporter): inhibited viral transcription significantly better in cells that contained Dicer
